Reference: patent US4661602A, “Substituted alkyl imidazole derivatives” (G. D. Searle & Co., priority 1985, dated 1987)
In brackets after ≈: the same amount, converted by molar mass. Structures can show the parent of a compound that is named as a salt. Where two headings read alike, the source gives them in different places.

What was measured:
[1] = test system: B. Fragilis NCTC 10581; assay: Anti-anaerobic activity, strain A (microtitre plate MIC/MBC); assay type: cell-based, Bacteroides fragilis
[2] = test system: B. Fragilis NCTC 9343; assay: Anti-anaerobic activity, strain B (microtitre plate MIC/MBC); assay type: cell-based, Bacteroides fragilis; details: for MIC: 48 hours, 37° C., anaerobic chamber, lowest concentration with no detectable growth
[3] = test system: B. Fragilis NCTC 9344; assay: Anti-anaerobic activity, strain C (microtitre plate MIC/MBC); assay type: cell-based; details: Bacteroides fragilis, NCTC9344, 48 h
[4] = test system: B. Fragilis ATCC 11295; assay: Anti-anaerobic activity, strain D (microtitre plate MIC/MBC); assay type: cell-based; details: Bacteroides fragilis, ATCC11295, 48 h
[5] = test system: B. Fragilis WS-1; assay: Anti-anaerobic activity, strain E (microtitre plate MIC/MBC); assay type: cell-based; details: Bacteroides fragilis, 48 h
[6] = test system: Clostridium perfringens NCTC 523; assay: microbe, parasite or virus in culture; assay type: cell-based; details: NCTC523
[7] = test system: Cl. perfringens NCTC 8237; assay: microbe, parasite or virus in culture; assay type: cell-based; details: Clostridium perfringens, NCTC8237
[8] = test system: Campl. fetus ATCC 29428; assay: Anti-anaerobic activity, additional strains; assay type: cell-based; details: Campylobacter fetus, ATCC29428
[9] = test system: Fuso. necrophorum ATCC 11295; assay: Anti-anaerobic activity, additional strains; assay type: cell-based; details: Fusobacterium necrophorum, ATCC11295
[10] = test system: Peptococc. magnus ATCC 29328; assay: Anti-anaerobic activity, additional strains; assay type: cell-based
[11] = test system: P. prevotti ATCC 9321; assay: Anti-anaerobic activity, additional strains; assay type: cell-based
[12] = test system: Peptostrepto anaerobicus ATCC 27337; assay: Anti-anaerobic activity, additional strains; assay type: cell-based
[13] = test system: Propionibacterium acnes NCTC 737; assay: Anti-anaerobic activity, additional strains; assay type: cell-based; details: Cutibacterium acnes, NCTC737
[14] = test system: P. acnes NCTC 7337; assay: Anti-anaerobic activity, additional strains; assay type: cell-based, Propionibacterium acnes; details: Cutibacterium acnes, NCTC7337
[15] = test system: Trichomonas vaginalis; assay: MIC against Trichomonas vaginalis (Diamonds Medium); assay type: cell-based
[16] = Bacteroides fragilis, NCTC10581, 48 h
[17] = Peptostrepto anaerobicus ATCC 27337

SMILES: Cc1ncc([N+](=O)[O-])n1CCO [Metronidazole, reference compound]
- MBC [1, 16]: 1.2 µg/mL (≈ 7.01 µM)
- MIC [1, 16]: 0.8 µg/mL (≈ 4.67 µM)
- MIC ([1]; Bacteroides fragilis, NCTC10581, 48 h, strain A, 48 hours, 37° C., anaerobic chamber, lowest concentration with no detectable growth, read-out: MIC): 0.6 µg/mL (≈ 3.51 µM)
- MIC ([1]; strain A, 48 hours, 37° C., anaerobic chamber, lowest concentration with no detectable growth): 1.2 µg/mL (≈ 7.01 µM)
- MBC ([2]; Bacteroides fragilis, NCTC9343, 48 h): 1.2 µg/mL (≈ 7.01 µM)
- MIC ([2]; Bacteroides fragilis, NCTC9343, 48 h, strain B): 1.5 µg/mL (≈ 8.76 µM)
- MIC ([2]; strain B): 0.8 µg/mL (≈ 4.67 µM)
- MBC [3]: 1.2 µg/mL (≈ 7.01 µM)
- MIC [3]: 0.8 µg/mL (≈ 4.67 µM)
- MBC [4]: 10 µg/mL (≈ 58.4 µM)
- MBC [5]: 1.2 µg/mL (≈ 7.01 µM)
- MIC [5]: 0.8 µg/mL (≈ 4.67 µM)
- MBC [6]: 1.2 µg/mL (≈ 7.01 µM)
- MIC [6]: 0.08 µg/mL (≈ 0.467 µM)
- MBC [7]: 10 µg/mL (≈ 58.4 µM)
- MIC [7]: 10 µg/mL (≈ 58.4 µM)
- MBC [8]: 10 µg/mL (≈ 58.4 µM)
- MIC [8]: 10 µg/mL (≈ 58.4 µM)
- MBC [9]: 10 µg/mL (≈ 58.4 µM)
- MIC [9]: 10 µg/mL (≈ 58.4 µM)
- MBC [10]: 10 µg/mL (≈ 58.4 µM)
- MIC ([10]; Peptococc. magnus ATCC 29328): 0.6 µg/mL (≈ 3.51 µM)
- MBC ([11]; P. prevotti ATCC 9321): 2.5 µg/mL (≈ 14.6 µM)
- MIC ([11]; P. prevotti ATCC 9321, read-out: MIC): 1.2 µg/mL (≈ 7.01 µM)
- MIC [12, 17]: 0.3 µg/mL (≈ 1.75 µM)
- MBC ([12]; Peptostrepto anaerobicus ATCC 27337, read-out: MBC): 0.3 µg/mL (≈ 1.75 µM)
- MBC [13]: 10 µg/mL (≈ 58.4 µM)
- MIC [13]: 10 µg/mL (≈ 58.4 µM)
- MBC [14]: 10 µg/mL (≈ 58.4 µM)
- MIC [14]: 10 µg/mL (≈ 58.4 µM)
- MIC ([15]; Diamonds Medium, lowest concentration at which no mobile organisms are viable microscopically, read-out: MIC): 0.6 µg/mL (≈ 3.51 µM)

SMILES: Clc1ccc(N2CCN=C2C(Cn2ccnc2)c2ccccc2)c(Cl)c1 (centres unmarked) [Example 3, 1-(2,4-Dichlorophenyl)-4,5-dihydro-2-[2-(imidazol-1-yl)-1-phenylethyl]imidazole hydrochloride]
- MBC ([1]; Bacteroides fragilis, NCTC10581, 48 h, strain A, less than 5 colonies (99.9% reduction in viable count) after 48 hours, read-out: MBC): 0.8 µg/mL
- MIC ([2]; Bacteroides fragilis, NCTC9343, 48 h, strain B, read-out: MIC): 1.5 µg/mL
- MBC ([2]; Bacteroides fragilis, NCTC9343, 48 h, strain B, less than 5 colonies (99.9% reduction in viable count) after 48 hours, read-out: MBC): 1.5 µg/mL
- MBC ([3]; strain C, less than 5 colonies (99.9% reduction in viable count) after 48 hours, read-out: MBC): 0.8 µg/mL
- MBC ([4]; strain D, less than 5 colonies (99.9% reduction in viable count) after 48 hours, read-out: MBC): 0.8 µg/mL
- MIC ([5]; strain E, 48 hours, 37° C., anaerobic chamber, lowest concentration with no detectable growth, read-out: MIC): 1.5 µg/mL
- MBC [6]: 3.1 µg/mL
- MIC [6]: 0.8 µg/mL
- MBC [7]: 3.1 µg/mL
- MIC [7]: 3.1 µg/mL
- MBC ([8]; Campl. fetus ATCC 29428, read-out: MBC): 6.2 µg/mL
- MIC ([8]; Campl. fetus ATCC 29428, read-out: MIC): 1.5 µg/mL
- MIC [9]: 3.1 µg/mL
- MBC ([9]; Fuso. necrophorum ATCC 11295, read-out: MBC): 6.2 µg/mL
- MIC ([10]; Peptococc. magnus ATCC 29328): 1.5 µg/mL
- MBC ([10]; Peptococc. magnus ATCC 29328, read-out: MBC): 6.2 µg/mL
- MIC [11]: 3.1 µg/mL
- MBC ([11]; P. prevotti ATCC 9321): 12.5 µg/mL
- MBC [12]: 3.1 µg/mL
- MIC [12, 17]: 1.5 µg/mL
- MBC [13]: 3.1 µg/mL
- MIC ([13]; Propionibacterium acnes NCTC 737, read-out: MIC): 0.8 µg/mL
- MBC ([14]; P. acnes NCTC 7337, read-out: MBC): 0.8 µg/mL
- MIC ([14]; P. acnes NCTC 7337, read-out: MIC): 0.8 µg/mL
- MIC [15]: 3.1 µg/mL
